From US4288449A, “N-Arylsulfonylpyrroles, their preparation, and therapeutic agents containing these compounds” (BASF Aktiengesellschaft, priority 1978, dated 1981)

Legend:
in vivo = settings: mouse, po
Method: To determine the acute toxicity, the substances are administered orally to groups of 10 female mice of the NMRI strain, weighing from 20 to 23 g. The mean lethal dose (LD 50) is determined after a period of observation of 72 hours.

[1] = Diuretic action after oral administration (excretion of electrolyte and of water); format: in vivo, dog (male beagles); settings: for Excretion of electrolyte: Na^+ / Na^+/K^+ quotient / Excretion of water: H2 O / Excretion of electrolyte: K^+ / Excretion of electrolyte: Cl^- / times more active than Furosemid / Na^+ excretion between the 2nd and 6th hours after administration: dog, oral; for Excretion of electrolyte: Na^+: dose mg/kg: 9 0.464, 15 0.215, 114 0.1, 116 0.1, 120 0.215, Furosemid 1.0; for Na^+/K^+ quotient: control 1.0; for times more active than Furosemid: by doses giving Na^+ and H2 O excretion similar to Furosemid; for Na^+ excretion between the 2nd and 6th hours after administration / diuretic action: in words
Method: The diuretic action was determined on male beagles weighing from 10 to 15 kg.
The animals are kept without food for 18 hours before starting the experiment. 2 hours before administration of the test substance, they are given 20 ml/kg of water orally. The test substances are administered orally as a tragacanth suspension. Thereafter, 4 ml/kg of water are administered 6 times at intervals of 1 hour.
Urine samples are taken by catheterization at intervals of 2 hours, over a period of 6 hours. […]

[2] = 2 hours, doses as E1, control 9,3
[3] = 2 hours, doses as E1, control 67
[4] = 2 hours, doses as E1, control 81
[5] = 6 hours, doses as E6, control 27
[6] = 6 hours, doses as E6, control 184
[7] = 6 hours, doses as E6, control 238

SMILES	LD50 at 72 h (in vivo)	selectivity ratio (in vivo)	Excretion of electrolyte: Na^+ ([1]; 2 hours, control 66)	Na^+/K^+ quotient ([1]; 2 hours, doses as E1)	Excretion of water: H2 O [1, 2]	Excretion of electrolyte: K^+ [1, 3]	Excretion of electrolyte: Cl^- [1, 4]	Excretion of electrolyte: Na^+ ([1]; 6 hours, control 212)	Excretion of water: H2 O [1, 5]	Excretion of electrolyte: K^+ [1, 6]	Excretion of electrolyte: Cl^- [1, 7]	times more active than Furosemid [1]	Na^+ excretion between the 2nd and 6th hours after administration [1]	diuretic action [1]
O=C(O)c1cc(NCc2ccccc2)c(Oc2ccccc2)c(S(=O)(=O)n2cccc2)c1 [Example 9]	957 mg/kg	2060	1,520 μval/kg	5.1	27 mL/kg	298 μval/kg	1,940 μval/kg	2930 µval/kg	56 mL/kg	810 μval/kg	4,200 μval/kg	2.2 times	a distinct further increase in excretion	not only better action, but also longer-lasting action, than Furosemid
O=C(O)c1cc(NCc2ccsc2)c(Oc2ccccc2)c(S(=O)(=O)n2cccc2)c1 [Example 15]	1470 mg/kg	6840	1,240 μval/kg	3.7	23 mL/kg	333 μval/kg	1,520 μval/kg	1,940 μval/kg	45 mL/kg	642 μval/kg	2,440 μval/kg	–	a distinct further increase in excretion	not only better action, but also longer-lasting action, than Furosemid
Cc1ccc(C)n1S(=O)(=O)c1cc(C(=O)O)cc(NCc2ccsc2)c1Nc1ccccc1 [Example 120]	> 2150 mg/kg	> 10000	1260 µval/kg	5.6	19 mL/kg	227 μval/kg	1,600 μval/kg	2,050 μval/kg	41 mL/kg	527 μval/kg	2,760 μval/kg	–	–	–
NS(=O)(=O)c1cc(C(=O)O)c(NCc2ccco2)cc1Cl [Furosemid, 4-chloro-N-(2-furylmethyl)-5-sulfamylanthranilic acid, reference compound]	–	–	–	3.1	–	–	–	–	–	–	–	–	–	–
CCc1ccc(CC)n1S(=O)(=O)c1cc(C(=O)O)cc(NCc2ccsc2)c1Oc1ccccc1 [Example 114]	> 2150 mg/kg	> 21500	1410 µval/kg	4.8	26 mL/kg	295 μval/kg	1,780 μval/kg	1,640 μval/kg	42 mL/kg	442 μval/kg	2,080 μval/kg	10 times	–	–
CCc1ccc(C)n1S(=O)(=O)c1cc(C(=O)O)cc(NCc2ccsc2)c1Oc1ccccc1 [Example 116]	> 2150 mg/kg	> 21500	1,150 μval/kg	4.2	22 mL/kg	271 μval/kg	1,510 μval/kg	1,560 μval/kg	40 mL/kg	473 μval/kg	2,100 μval/kg	10 times	–	–
